Source: US8685936B2, “Sphingosine kinase inhibitor prodrugs” (Apogee Biotechnology Corporation, priority 2009, dated 2014)

Experiments:
[1] = system: esterases in mouse plasma; experiment: Conversion of ester prodrugs to Compound 1 by mouse plasma (HPLC); assay type: in vitro ADME
Method: FIG. 2. Chromatogram of Compound 2. Purified Compound 2 was analyzed by high-performance liquid chromatography using a Waters 2795 system equipped with a photodiode array detector. Separations were conducted using a Nova-Pak C18 column (3.9×150 mm, Waters) eluted isocratically with a mobile phase that consisted of 65% Solvent A (methanol containing 0.1% formic acid) and 35% Solvent B (5% acetonitrile and 95% water containing 0.1% formic acid) at a flow rate of 0.6 mL/min. Compound 2 was detected by its absorbance at the wavelength of 265 nm.
FIG. 3. Conversion of Compound 2 to Compound 1 by plasma enzymes. Purified Compound 2 was incubated with mouse plasma for 5 minutes at room temperature. The sample was then extracted and analyzed by high-performance liquid chromatography as described for FIG. 2.
Prodrugs are compounds that are converted to a biologically active metabolite through the action of enzymes in the body. […] When Compound 2 was incubated with plasma isolated from mouse blood at room temperature for 5 minutes and then analyzed by a similar HPLC process, the peak corresponding to Compound 2 was reduced by more than 95%, and new compounds that eluted with retention times consistent with the monoester of Compound 1, i.e. one of the acetyl esters had been removed, and Compound 1 itself, i.e. both of the acetyl esters had been removed (FIG. 3). […]

[2] = Conversion of Compound 2 to Compound 1 in living mice; plasma levels of Compound 1 by HPLC; assay type: in vivo
Method: FIG. 4. Conversion of Compound 2 into Compound 1 in vivo. Balb/C female mice, 6-8 weeks old, were dosed with either Compound 1 (●) or Compound 2 (♦) at 50 mg/kg by intravenous injection. Mice were euthanized at the indicate times after injection, and blood was harvested by cardiac puncture and plasma was prepared. The plasma was then extracted and analyzed for Compound 1 levels by HPLC.
To extend the in vitro studies described above, the ability of Compound 2 to be converted to Compound 1 in an in vivo test system was determined. In these experiments, Compound 1 or Compound 2 was dissolved in PEG400 and administered to female Balb/C mice at a dose of 50 mg/kg by intravenous injection. Mice were sacrificed and blood was removed via cardiac puncture at 2 minutes, 15 minutes, 30 minutes or 60 minutes. The concentration of Compound 1 in the blood of the animals at each of the time points was determined using HPLC with UV detection as described in the previous Example. […] In the case of administration of Compound 2, plasma concentrations of Compound 1 rose during the first 30 minutes and then were decreased with a half-time of clearance of approximately 20 minutes.

[3] = system: Murine JC mammary adenocarcinoma cells; experiment: Cytotoxicity, MTS cell viability assay; assay type: cell-based; settings: 72 hours
Source text: FIG. 5. Inhibition of tumor cell proliferation by Compound 1 and Compound 2. Murine JC mammary adenocarcinoma cells were exposed to the indicated concentrations of either Compound 1 (▪) or Compound 2 (▴) for 72 hr. At the end of the exposure, the number of viable tumor cells was quantified using the MTS assay. Values represent the fraction of surviving cells compared with DMSO-(vehicle)-treated control cells.
To further assess the biological efficacies of the Compounds in intact cells, Compound 1 and Compound 2 were evaluated for cytotoxicity using a murine breast cancer cell line. These experiments followed methods that have been extensively used. The cells were treated with varying doses of the test Compound for 72 hours, and then cell viability was measured using CellTiter 96® AQueous Non-Radioactive Cell Proliferation Assay (MTS) available from Promega Corporation. Values represent the mean±std. dev. percentage of cells that survive at each of the indicated concentrations of Compound 1 or Compound 2. […] However, the extent of cell killing and the potency for cell killing were greater for Compound 2 than Compound 1.

[4] = system: mouse JC mammary adenocarcinoma tumors; experiment: Antitumor activity, JC mammary adenocarcinoma tumors growing subcutaneously in Balb/c mice; assay type: in vivo; settings: 50 mg/kg of Compound 2 daily for five days per week
Method: FIG. 6. Antitumor activity of Compound 2 alone and in combination with gemcitabine. Murine JC mammary adenocarcinoma cells were injected subcutaneously into Balb/c mice and tumors were allowed to grow to approximately 150 mm^3. The animals were then treated with vehicle alone (▪), 1 mg/kg of gemcitabine weekly (▴), 50 mg/kg of Compound 2 daily for five days per week (▾) or a combination of gemcitabine plus Compound 2 (♦). Tumors were measured twice per week. The values shown represent the average tumor volume+/−the std. dev. for each group (n=8).
The antitumor activity of a representative prodrug SK inhibitor was evaluated using a […] tumor model that uses the mouse JC mammary adenocarcimona cell line growing subcutaneously in immunocompetent Balb/c mice (Lee et al., Oncol Res 14: 49 (2003)). These cells express elevated levels of SK activity relative to non-transformed cells, as well as the multidrug resistance phenotype due to P-glycoprotein activity. Murine JC mammary adenocarcinoma cells were injected subcutaneously into Balb/c mice and tumors were allowed to grow to approximately 100 mm^3. The animals were then treated with vehicle alone (▪), 1 mg/kg of gemcitabine weekly (▴), 50 mg/kg of Compound 2 daily for five days per week (▾) or a combination of gemcitabine plus Compound 2 (♦). Tumors were measured twice per week. […]

Compound: CC(=O)Oc1ccc(CCNC(=O)C23CC4CC(C2)CC(c2ccc(Cl)cc2)(C4)C3)cc1OC(C)=O [Compound 2, Acetic acid 2-acetoxy-5-(2-{[3-(4-chlorophenyl)-adamantane-1-carbonyl]-amino}ethyl)phenyl ester]
- reduction of the HPLC peak corresponding to Compound 2 ([1]; incubated with mouse plasma at room temperature for 5 minutes): more than 95%
- cleavage of the esters / conversion to Compound 1 by mouse plasma ([1]; mouse plasma, room temperature, 5 minutes, HPLC): rapidly convert Compound 2 into Compound 1
- area-under-the-curve (AUC) for exposure to circulating Compound 1, compared with dosing Compound 1 itself ([2]; 50 mg/kg intravenous, female Balb/C mice): much greater
- half-time for clearance of Compound 1 from plasma ([2]; 50 mg/kg of the named compound by intravenous injection in PEG400, female Balb/C mice, Compound 1 measured): approximately 20 minutes
- extent of cell killing, Compound 2 compared with Compound 1 [3]: greater
- inhibition of tumor cell proliferation (cell viability) [3]: can inhibit tumor cell proliferation
- potency for cell killing, Compound 2 compared with Compound 1 [3]: greater
- tumor growth (tumor volume) [4]: significant reduction of tumor growth
